Test results reported in patent US8952024B2, “Herbicidal pyrimidone derivatives” (E I du Pont de Nemours and Company, priority 2009, dated 2015).

Legend:
Type in all cases: in vivo
[1] = tested on: pigweed (Amaranthus retroflexus); experiment: Test B pre-/postemergence plant response
Outline: (§1)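 Compound in solvent + surfactant applied pre-em (loam/sand) or post-em (plants 2–18 cm, peat medium); greenhouse hold 13–15 days; visual 0–100 control score.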

[2] = tested on: nightshade (eastern black nightshade, Solanum ptycanthum); experiment: Test B pre-/postemergence plant response; details: Preemergence
Outline: as §1

[3] = tested on: sunflower (common oilseed sunflower, Helianthus annuus); experiment: Test B pre-/postemergence plant response; details: Preemergence
Outline: as §1

[4] = tested on: wild oat (Avena fatua); experiment: Test B pre-/postemergence plant response
Outline: as §1

[5] = tested on: galium (catchweed bedstraw, Galium aparine); experiment: Test B pre-/postemergence plant response; details: Preemergence
Outline: as §1

[6] = tested on: canarygrass (Phalaris minor); experiment: Test B postemergence plant response; details: Postemergence
Outline: (§2)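 Visual ratings from 0 (no effect) to 100 (complete control), made against controls 13–15 days after treatment, kept in a greenhouse. Compounds were applied postemergence to potted plants at the 1- to 4-leaf stage (2–18 cm).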

[7] = tested on: winter barley (Hordeum vulgare); experiment: Test B postemergence plant response; details: Postemergence
Outline: as §2

[8] = tested on: chickweed (Stellaria media); experiment: Test B postemergence plant response; details: Postemergence
Outline: as §2

[9] = tested on: windgrass (Apera spica-venti); experiment: Test B postemergence plant response; details: Postemergence
Outline: as §2

[10] = tested on: goosegrass (Eleusine indica); experiment: Test B pre-/postemergence plant response; details: Preemergence, 62 g ai/ha; scale 0 to 100, 0 no effect, 100 complete control
[11] = tested on: barnyardgrass (Echinochloa crus-galli); experiment: Test B flooded paddy test; details: for Plant response rating, Barnyardgrass: Flood (flooded paddy test), 13 to 15 days
Outline: (§3)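 Each compound is added to standing floodwater (3 cm above soil, maintained) in pots of 2-leaf-stage plants; greenhouse exposure lasts 13–15 d before visual comparison with controls on a 0–100 control scale.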

[12] = tested on: rice (Oryza sativa); experiment: Test B flooded paddy test; details: for Plant response rating, Rice: Flood (flooded paddy test), 13 to 15 days
Outline: as §3

[13] = tested on: umbrella sedge (Cyperus difformis); experiment: Test B flooded paddy test; details: for Plant response rating, Sedge, Umbrella: Flood (flooded paddy test), 13 to 15 days
Outline: as §3

[14] = tested on: ducksalad (Heteranthera limosa); experiment: Test B flooded paddy test; details: for Plant response rating, Ducksalad: Flood (flooded paddy test), 13 to 15 days
Outline: as §3

[15] = 250 g ai/ha, Preemergence, 0 to 100 scale
[16] = Postemergence, 31 g ai/ha, scale 0 to 100 (0 no effect, 100 complete control)
[17] = Postemergence, 62 g ai/ha, scale 0 (no effect) to 100 (complete control), 13 to 15 days
[18] = Postemergence, 125 g ai/ha, visual rating after 13 to 15 days, scale 0 (no effect) to 100 (complete control)
[19] = Postemergence, 250 g ai/ha, scale 0 to 100
[20] = Preemergence, 31 g ai/ha, scale 0 to 100 (0 no effect, 100 complete control)
[21] = Preemergence, 62 g ai/ha, scale 0 to 100, 0 no effect, 100 complete control
[22] = Preemergence, 125 g ai/ha, 0 to 100 scale
[23] = 31 g ai/ha, scale 0 to 100 (0 no effect, 100 complete control)
[24] = 62 g ai/ha, scale 0 to 100, 0 no effect, 100 complete control
[25] = 62 g ai/ha, scale 0 (no effect) to 100 (complete control), 13 to 15 days
[26] = 125 g ai/ha, visual rating after 13 to 15 days, scale 0 (no effect) to 100 (complete control)
[27] = 250 g ai/ha, flooded paddy test, visual rating on 0 to 100 scale (0 no effect, 100 complete control) after 13 to 15 days
[28] = 31 g ai/ha, scale of 0 to 100 where 0 is no effect and 100 is complete control
[29] = 62 g ai/ha, scale 0 to 100, 0 is no effect, 100 is complete control
[30] = 125 g ai/ha, scale 0 to 100, 0 is no effect, 100 is complete control

For `O=C1CCCC([O-])=C1C(=O)c1cnc(-c2ccccc2)n(-c2ccccc2)c1=O.[K+]` [Compound 14], the “Plant response rating, Pigweed” value [1, 15] was 100, the “Plant response rating, Pigweed” value [1, 16] was 80 and the “Plant response rating, Pigweed” value [1, 17] was 80. For the same compound, the “Plant response rating, Pigweed” value [1, 18] was 80, the “Pigweed plant response rating” value [1, 19] was 98 and the “Plant response rating, Pigweed” value [1, 20] was 90. The “Plant response rating, Pigweed” value [1, 21] was 98, the “Pigweed plant response rating” value [1, 22] was 100 and the “Plant response rating, Nightshade” value ([2]; 250 g ai/ha, 0 to 100 scale) was 100. The “Plant response rating, Nightshade” value [2, 23] was 85, the “Plant response rating, Nightshade” value [2, 24] was 98 and the “Nightshade plant response rating” value ([2]; 125 g ai/ha, 0 to 100 scale) was 100. For the same compound, the “Plant response rating, Sunflower” value ([3]; 250 g ai/ha, 0 to 100 scale) was 98, the “Plant response rating, Sunflower” value [3, 23] was 50 and the “Plant response rating, Sunflower” value [3, 24] was 85. The “Sunflower plant response rating” value ([3]; 125 g ai/ha, 0 to 100 scale) was 85, the “Plant response rating, Oat, Wild” value [4, 15] was 0 and the “Plant response rating, Oat, Wild” value [4, 16] was 30. For the same compound, the “Plant response rating, Oat, Wild” value [4, 17] was 40, the “Plant response rating, Oat, Wild” value [4, 18] was 50 and the “Oat, Wild plant response rating” value [4, 19] was 50. For the same compound, the “Plant response rating, Oat, Wild” value [4, 20] was 0, the “Plant response rating, Oat, Wild” value [4, 21] was 0 and the “Oat, Wild plant response rating” value [4, 22] was 0. For the same compound, the “Plant response rating, Galium” value ([5]; 250 g ai/ha, 0 to 100 scale) was 80, the “Plant response rating, Galium” value [5, 23] was 0 and the “Plant response rating, Galium” value [5, 24] was 0. For the same compound, the “Galium plant response rating” value ([5]; 125 g ai/ha, 0 to 100 scale) was 40, the “Plant response rating, Canarygrass” value [6, 23] was 10 and the “Plant response rating, Canarygrass” value [6, 25] was 20. The “Plant response rating, Canarygrass” value [6, 26] was 20, the “Canarygrass plant response rating” value ([6]; 250 g ai/ha, scale 0 to 100) was 50 and the “Plant response rating, Barley” value [7, 23] was 0. The “Plant response rating, Barley” value [7, 25] was 0, the “Plant response rating, Barley” value ([7]; 125 g ai/ha, scale 0 to 100 (0 no effect, 100 complete control), 13 to 15 days) was 5 and the “Barley plant response rating” value ([7]; 250 g ai/ha, scale 0 to 100) was 40. The “Plant response rating, Chickweed” value [8, 26] was 80, the “Chickweed plant response rating” value ([8]; 250 g ai/ha, scale 0 to 100) was 80 and the “Plant response rating, Windgrass” value [9, 23] was 5. The “Plant response rating, Windgrass” value [9, 25] was 30, the “Plant response rating, Windgrass” value [9, 26] was 30 and the “Windgrass plant response rating” value ([9]; 250 g ai/ha, scale 0 to 100) was 50. The “Plant response rating, Goosegrass” value [10] was 85, the “Plant response rating, Flood, Barnyardgrass” value [11, 27] was 0 and the “Plant response rating, Barnyardgrass” value [11, 28] was 0. The “Plant response rating, Barnyardgrass” value [11, 29] was 0, the “Plant response rating, Barnyardgrass” value [11, 30] was 0 and the “Plant response rating, Flood, Rice” value [12, 27] was 0. The “Plant response rating, Rice” value [12, 28] was 0, the “Plant response rating, Rice” value [12, 29] was 0 and the “Plant response rating, Rice” value [12, 30] was 0. The “Plant response rating, Flood, Sedge, Umbrella” value [13, 27] was 40, the “Plant response rating, Sedge, Umbrella” value [13, 28] was 0 and the “Plant response rating, Sedge, Umbrella” value [13, 29] was 0. The “Plant response rating, Sedge, Umbrella” value [13, 30] was 0, the “Plant response rating, Flood, Ducksalad” value [14, 27] was 40 and the “Plant response rating, Ducksalad” value [14, 28] was 0. The “Plant response rating, Ducksalad” value [14, 29] was 20 and the “Plant response rating, Ducksalad” value [14, 30] was 30.
